The record followed here is US7094760B2, “Peptides for treatment of inflammation and shock” (Salpep Biotechnology, Inc., priority 1996, dated 2006).

One test relates to human neutrophils. Kind of test: superoxide anion production in vitro, human neutrophils. It is filed as cell-based. Particulars: for superoxide anion production: 10^−7M PMA. As for the experimental part:
(§1) Neutrophils (10^6) were suspended in PBS buffer of the following composition: NaCl 137 mM, KCl 2.7 mM, Na2HPO4, 8.1 mM, KH2PO4 1.47 mM, CaCl2 1.19 mM, MgCl2 0.54 mM, glucose 7.5 mM and cytochrome C 1.5 mM (Sigma Chemical Co. St. Louis, […].) incubated at 37 C. Each sample was read along with a reference sample containing 1440 units of superoxide dismutase (Sigma) in a spectrophotometer (Hitachi, U200 spectrophotometer). The rate of superoxide production in response to 10^−7M phorbol myristate acetate (PMA) or 10^−5 M N-formyl-methionyl-leucyl-phenylalanine (fMLP) was then inferred from the slope. (Derian et al., (1996), Biochemistry 35(4): 1265–9).
(§2) Neutrophils obtained either from carrageenin-soaked sponges implanted subcutaneously in rats, or from the blood of healthy human volunteers, were preincubated with various doses of SGP-T for 30 minutes, then stimulated with 10^−7M PMA and the rate of superoxide anion production determined. At doses less than 1 μM, SGP-T inhibited superoxide anion production by both rat and human neutrophils, although the rat neutrophils were approximately 10-fold less sensitive than human neutrophils to this inhibitor effect (FIG. 6). At higher doses of the peptide(>1 μM), an enhancement of superoxide anion production was evident with human neutrophils.
(§3) At 0.001 and 0.01 μM SGP-T, O2^− production was inhibited by 15 to 20% in human neutrophils, while 10-fold higher concentrations were required for such inhibition with rat neutrophils. Much higher concentrations of SGP-T (10 and 20 μM) stimulated O2^− production by human neutrophils. Each value is presented as the mean ±SEM, and the number of experiments was between 6 and 12.

The subject of another test is rat neutrophils. Description: superoxide anion production in vitro, rat neutrophils. The test is classed as cell-based. As for the experimental part:
as §1, §2, §3

Consider “NH2-Thr-Asp-Ile-Phe-Glu-Gly-Gly-COOH (H-TDIFEGG-OH) [SGP-T, submandibular gland peptide T, TDIFEGG]”, for which the “O2− production” value with human neutrophils (10 and 20 μM) is “stimulated”. The superoxide anion production result in the test with human neutrophils (doses less than 1 μM) is “inhibited”; in the test on human neutrophils (higher doses (>1 μM)), “enhancement”; in the test on rat neutrophils (doses less than 1 μM, 10^−7M PMA), “inhibited”. In the test on rat neutrophils (inhibition of superoxide anion production), the “sensitivity of rat neutrophils relative to human neutrophils (less sensitive)” value was “approximately 10 fold”. Also, the “higher concentrations required for 15 to 20% inhibition versus human neutrophils” value with rat neutrophils (relative to 0.001 and 0.01 μM in human neutrophils) was 10 fold.
